The results in this text go back to US20230066011A1, “PYRROLOPYRIMIDINE DERIVATIVE, AND PHARMACEUTICAL COMPOSITION FOR PREVENTING OR TREATING PROTEIN KINASE-RELATED DISEASE COMPRISING SAME AS ACTIVE INGREDIENT” (VORONOI CO., LTD., priority 2019, published 2023).

Experiment [1] has as its target T1, human GST-DYRK1A (Homo sapiens, UniProt Q13627).
T1 construct: purified human GST-DYRK1A (full length, Thermo Scientifics) enzyme; purchased Thermo Scientifics
Briefly: GST-DYRK1A enzyme inhibition, ADP-Glo kinase assay. It counts as biochemical. To be noted: ATP 10 μM, GST-DYRK1A full length, read-out: DYRK1 IC50. In short, it runs like this:
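Full-length human GST-DYRK1A (10 ng) with 10 μM ATP and specific substrate in 40 mM Tris-HCl pH 7.4, 20 mM MgCl2, 0.5 mg/mL BSA, 50 μM DTT, 1 h at 25 °C. ADP formation read by ADP-Glo luminescence relative to solvent control; IC50 from three data sets.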
For orientation: In ADP-Glo the light output rises with the ADP produced.

For experiment [2], the target named is T2, human GST-CLK1 (Homo sapiens, UniProt P49759).
T2 construct: purified human GST-CLK1 (129-end, SignalChem) enzyme; purchased SignalChem
T2 sequence (P49759 129-484 limits assumed): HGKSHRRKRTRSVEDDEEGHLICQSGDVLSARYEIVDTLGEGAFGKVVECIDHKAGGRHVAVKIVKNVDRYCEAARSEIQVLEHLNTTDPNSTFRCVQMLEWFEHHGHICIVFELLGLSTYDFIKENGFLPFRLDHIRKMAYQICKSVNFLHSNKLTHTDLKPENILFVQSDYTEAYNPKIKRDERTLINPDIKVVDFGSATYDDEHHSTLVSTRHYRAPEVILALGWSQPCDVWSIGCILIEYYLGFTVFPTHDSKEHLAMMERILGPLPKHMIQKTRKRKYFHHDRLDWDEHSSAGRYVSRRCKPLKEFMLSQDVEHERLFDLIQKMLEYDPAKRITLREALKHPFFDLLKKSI
Briefly: GST-CLK1 enzyme inhibition, ADP-Glo kinase assay. The settings on record: ATP 10 μM, GST-CLK1 129-end. It counts as biochemical. The method, boiled down: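 Human GST-CLK1 (129-end, 3 ng) reacted with substrate and 10 μM ATP for 1 h at 25° C in 40 mM Tris-HCl pH 7.4, 20 mM MgCl2, 0.5 mg/mL BSA, 50 μM DTT. ADP-Glo luminescence was normalised to solvent control; IC50 (nM) from 3 data sets.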

The subject of experiment [3] is SHP-77. Put plainly: Inhibition of proliferation of SHP-77 cancer cells (Cell Titer-Glo). The settings on record: Homo sapiens, SHP77, 72 hours. It counts as cell-based. As to the method:
To evaluate an inhibitory effect on the proliferation of cancer cells, each of an MDA-MB-231 cell line (Korean Cell Line Bank #30026) and an MDA-MB-468 cell line as triple-negative breast cancer cell lines, and SHP-77 (ATCC #CRL-2195) as a small-cell lung cancer cell line was cultured in DMEM (HyClone #SH30243) or an RPMI medium (HyClone #SH3027.01) to analyze a cell growth rate. More specifically, a cell line was plated on a 96-well flat bottom plate (Corning #3903) at a density of 2,000 cells/100 μL per well, and then treated with 11 concentrations of the Example compound, a solution of which was diluted 3-fold so that a final concentration of the compound was 10.000000, 3.333333, 1.111111, 0.370370, 0.123457, 0.041152, 0.013717, 0.004572, 0.001524, 0.000508, and 0.000169 μM. After 72 hours, each of the culture media was treated with 100 μL of Cell Titer-Glo (Promega G7573), and then cultured at room temperature for 10 minutes. Then, a degree of luminescence was measured using a microplate reader. A GI50 value was calculated from the measured degree of luminescence using Prism (Version 8.2 GraphPad) software.
For orientation: ATP-based viability assays read luminescence as a measure of living cells.

In experiment [4] the test system is MDA-MB-231 cell line. Briefly: Inhibition of proliferation of MDA-MB-231 cancer cells (Cell Titer-Glo). It counts as cell-based. The settings on record: Homo sapiens, 72 hours. The method, boiled down:
(§1)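 Step one, seed 2,000 cells per well in DMEM or RPMI. Step two, add compound at 11 final concentrations (10 to 0.000169 μM, 3-fold series) and culture for 72 hours. Step three, add Cell Titer-Glo, wait 10 min at room temperature, read luminescence and calculate GI50.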

The subject of experiment [5] is MDA-MB-468 cell line. Briefly: Inhibition of proliferation of MDA-MB-468 cancer cells (Cell Titer-Glo). It counts as cell-based. The settings on record: Homo sapiens, MDA-MB-468, 72 hours. In short, it runs like this: as §1
The target of experiment [6] is LRRK2 (G2019S) (Homo sapiens, UniProt Q5S007, G2019S). Put plainly: LRRK2 G2019S enzyme inhibition, ADP-Glo kinase assay. The class given is biochemical. Set-up: purchased SignalChem L10-12GG. The settings on record: ATP 25 μM. The method, boiled down:
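Purified human LRRK2 G2019S (16 ng) with 25 μM ATP and 0.2 μg substrate, 2 h at 25° C. in Tris-HCl pH 7.4, MgCl2, BSA, DTT buffer; compounds at 12 final concentrations, 50 μM down to 0.000001024 μM. ADP-Glo luminescence versus solvent control gave IC50.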

For experiment [7], the target named is LRRK2 (Homo sapiens, UniProt Q5S007). Briefly: LRRK2 enzyme inhibition, ADP-Glo kinase assay. The settings on record: ATP 10 μM. Set-up: purchased Invitrogen PR8604B. The class given is biochemical. The method, boiled down: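 Purified human LRRK2 (25 ng) with 10 μM ATP and 0.2 μg substrate in 40 mM Tris-HCl pH 7.4, 20 mM MgCl2, 0.5 mg/mL BSA, 50 μM DTT, 2 h at 25° C. ADP-Glo luminescence; 12-point compound series from 50 μM final; IC50 relative to solvent control.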
Chain of LRRK2 (Q5S007 970-2527 limits assumed): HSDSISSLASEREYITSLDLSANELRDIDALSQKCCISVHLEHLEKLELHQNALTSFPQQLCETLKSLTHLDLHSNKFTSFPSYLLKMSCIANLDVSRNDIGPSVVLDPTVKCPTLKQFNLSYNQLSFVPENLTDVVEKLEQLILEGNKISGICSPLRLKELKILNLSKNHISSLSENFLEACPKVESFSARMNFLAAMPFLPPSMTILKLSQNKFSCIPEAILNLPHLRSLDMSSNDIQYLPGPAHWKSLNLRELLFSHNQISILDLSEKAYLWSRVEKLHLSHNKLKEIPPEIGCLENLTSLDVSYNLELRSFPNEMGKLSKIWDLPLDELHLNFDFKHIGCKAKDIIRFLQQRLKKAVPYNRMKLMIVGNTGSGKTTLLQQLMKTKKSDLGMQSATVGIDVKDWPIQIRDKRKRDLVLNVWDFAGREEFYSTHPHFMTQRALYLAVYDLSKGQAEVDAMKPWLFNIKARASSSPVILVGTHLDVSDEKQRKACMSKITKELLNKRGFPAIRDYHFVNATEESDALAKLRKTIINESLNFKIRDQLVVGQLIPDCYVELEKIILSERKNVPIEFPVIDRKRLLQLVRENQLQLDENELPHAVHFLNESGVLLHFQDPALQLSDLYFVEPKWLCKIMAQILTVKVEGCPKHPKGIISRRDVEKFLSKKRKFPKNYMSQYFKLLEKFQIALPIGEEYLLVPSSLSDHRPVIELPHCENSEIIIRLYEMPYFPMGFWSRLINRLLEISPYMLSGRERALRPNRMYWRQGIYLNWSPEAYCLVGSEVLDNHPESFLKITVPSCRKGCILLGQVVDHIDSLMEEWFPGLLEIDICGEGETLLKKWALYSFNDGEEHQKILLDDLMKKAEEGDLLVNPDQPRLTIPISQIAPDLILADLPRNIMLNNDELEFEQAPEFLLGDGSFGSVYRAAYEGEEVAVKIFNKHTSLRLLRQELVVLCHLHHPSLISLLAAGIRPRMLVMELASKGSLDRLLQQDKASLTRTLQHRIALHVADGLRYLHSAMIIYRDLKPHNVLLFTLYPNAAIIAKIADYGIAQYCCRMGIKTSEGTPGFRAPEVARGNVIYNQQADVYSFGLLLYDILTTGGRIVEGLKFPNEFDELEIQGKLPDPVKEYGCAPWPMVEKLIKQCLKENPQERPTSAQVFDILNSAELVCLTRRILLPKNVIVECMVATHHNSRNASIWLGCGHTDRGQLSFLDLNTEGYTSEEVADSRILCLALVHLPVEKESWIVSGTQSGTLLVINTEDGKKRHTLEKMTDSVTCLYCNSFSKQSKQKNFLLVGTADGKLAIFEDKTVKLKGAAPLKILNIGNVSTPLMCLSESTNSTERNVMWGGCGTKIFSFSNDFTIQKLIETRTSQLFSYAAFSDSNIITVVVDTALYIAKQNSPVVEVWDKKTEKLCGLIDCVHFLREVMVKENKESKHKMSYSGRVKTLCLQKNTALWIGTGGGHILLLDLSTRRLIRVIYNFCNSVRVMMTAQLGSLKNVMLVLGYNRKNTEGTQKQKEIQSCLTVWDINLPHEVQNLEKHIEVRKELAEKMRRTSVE

By IC50 is commonly meant the point on the concentration scale where inhibition reaches its midpoint. Broadly, the GI50 is the concentration giving 50% growth inhibition. Higher therefore signals lower sensitivity of the cells.

Chain of LRRK2 (G2019S) (Q5S007 970-2527 G2019S limits assumed): as the sequence (Q5S007 970-2527 limits assumed) above, with G1050S counted along it

As to `COc1cc(S(=O)(=O)N2CCOCC2)ccc1Nc1nc(N[C@H]2CCOC2)c2c(C#N)c[nH]c2n1` [Example 75, (S)-2-((2-methoxy-4-(morpholinosulfonyl)phenyl)amino)-4-((tetrahydrofuran-3-yl)amino)-7H-pyrrolo[2,3-d]pyrimidine-5-carbonitrile], the IC50 in experiment [1] and in experiment [2] was 301 to 1000 nM in each case. The figures for the GI50 in experiment [3], in experiment [4] and in experiment [5] were less than 50 nM, 51 to 100 nM and 101 to 300 nM, respectively.
With `CC[C@@H](C)Nc1nc(Nc2ccc(S(=O)(=O)N3CCC(N4CCOCC4)CC3)cc2OC)nc2[nH]cc(C(F)(F)F)c12` [Example 172, (R)-N^4-(sec-butyl)-N^2-(2-methoxy-4-((4-morpholinopiperidin-1-yl)sulfonyl)phenyl)-5-(trifluoromethyl)-7H-pyrrolo[2,3-d]pyrimidine-2,4-diamine], the IC50 in experiment [6], in experiment [1], in experiment [2] and in experiment [7] was 301 to 1000 nM in each case. The figures for the GI50 in experiment [3] and in experiment [4] were 101 to 300 nM and 301 to 1000 nM, respectively.
For the molecule `COc1cc(S(=O)(=O)N2CCOCC2)ccc1Nc1nc(NC(C)C)c2c(C(F)(F)F)c[nH]c2n1` [Example 164, N^4-isopropyl-N^2-(2-methoxy-4-(morpholinosulfonyl)phenyl)-5-(trifluoromethyl)-7H-pyrrolo[2,3-d]pyrimidine-2,4-diamine], the IC50 in experiment [6] is 301 to 1000 nM; in experiment [1] it was 301 to 1000 nM; in experiment [2] it was 301 to 1000 nM; in experiment [7], less than 100 nM. The GI50 in experiment [3] lay within 51 to 100 nM; in experiment [4], 301 to 1000 nM.
Regarding `COc1cc(S(=O)(=O)N2CCC(N3CCOCC3)CC2)ccc1Nc1nc(NC2CCC2)c2c(C#N)c[nH]c2n1` [Example 89, 4-(cyclobutylamino)-2-((2-methoxy-4-((4-morpholinopiperidin-1-yl)sulfonyl)phenyl)amino)-7H-pyrrolo[2,3-d]pyrimidine-5-carbonitrile], the IC50 in experiment [6] is less than 100 nM; in experiment [1], 301 to 1000 nM; in experiment [2], 101 to 300 nM; in experiment [7], less than 100 nM. The GI50 is 51 to 100 nM in experiment [3] and less than 50 nM in experiment [4].
On to `COCCNc1nc(Nc2ccc(S(=O)(=O)N3CCOCC3)cc2OC)nc2[nH]cc(C#N)c12` [Example 69, 2-((2-methoxy-4-(morpholinosulfonyl)phenyl)amino)-4-((2-methoxyethyl)amino)-7H-pyrrolo[2,3-d]pyrimidine-5-carbonitrile], for which the IC50 is less than 100 nM in experiment [6], 301 to 1000 nM in experiment [1], 301 to 1000 nM in experiment [2] and less than 100 nM in experiment [7]. Besides, the 50% growth inhibitory concentration (GI50) in experiment [3] and in experiment [4] was 301 to 1000 nM in each case.
Take `COc1cc(S(=O)(=O)N2CCOCC2)ccc1Nc1nc(NC2CCCC2)c2c(C#N)c[nH]c2n1` [Example 72, 4-(cyclopentylamino)-2-((2-methoxy-4-(morpholinosulfonyl)phenyl)amino)-7H-pyrrolo[2,3-d]pyrimidine-5-carbonitrile]: the half-inhibitory concentration (IC50) in experiment [6], in experiment [1], in experiment [2] and in experiment [7] was 301 to 1000 nM throughout. In addition, the GI50 in experiment [3] and in experiment [4] was less than 50 nM throughout.
As to `COc1cc(S(=O)(=O)N2CCOCC2)ccc1Nc1nc(NC2CCC2)c2c(C#N)c[nH]c2n1` [Example 71, 4-(cyclobutylamino)-2-((2-methoxy-4-(morpholinosulfonyl)phenyl)amino)-7H-pyrrolo[2,3-d]pyrimidine-5-carbonitrile], the IC50 in experiment [6] was less than 100 nM; in experiment [1], 301 to 1000 nM; in experiment [2] it was 301 to 1000 nM; in experiment [7] it was less than 100 nM. Besides, the GI50 in experiment [3] lay in the range of 51 to 100 nM; in experiment [4], 101 to 300 nM.
With `COc1cc(S(=O)(=O)N2CCOCC2)ccc1Nc1nc(NCC2CC2)c2c(C#N)c[nH]c2n1` [Example 77, 4-((cyclopropylmethyl)amino)-2-((2-methoxy-4-(morpholinosulfonyl)phenyl)amino)-7H-pyrrolo[2,3-d]pyrimidine-5-carbonitrile], the IC50 in experiment [6] was less than 100 nM; in experiment [1] it was 301 to 1000 nM; in experiment [2] it was 301 to 1000 nM; in experiment [7], less than 100 nM. The 50% growth inhibitory concentration (GI50) in experiment [3] and in experiment [4] was less than 50 nM in each case.
Turning to `CCCCNc1nc(Nc2ccc(S(=O)(=O)N3CCC(N4CCOCC4)CC3)cc2OC)nc2[nH]cc(C#N)c12` [Example 97, 4-(butylamino)-2-((2-methoxy-4-((4-morpholinopiperidin-1-yl)sulfonyl)phenyl)amino)-7H-pyrrolo[2,3-d]pyrimidine-5-carbonitrile], the IC50 in experiment [6] is less than 100 nM; in experiment [1], 301 to 1000 nM; in experiment [2], 301 to 1000 nM; in experiment [7] it was less than 100 nM. The GI50 in experiment [3] and in experiment [4] was less than 50 nM throughout.
Consider `CCCNc1nc(Nc2ccc(S(=O)(=O)N3CCOCC3)cc2OC)nc2[nH]cc(C#N)c12` [Example 64, 2-((2-methoxy-4-(morpholinosulfonyl)phenyl)amino)-4-(propylamino)-7H-pyrrolo[2,3-d]pyrimidine-5-carbonitrile], for which the IC50 is less than 100 nM in experiment [6], 301 to 1000 nM in experiment [1], 301 to 1000 nM in experiment [2] and less than 100 nM in experiment [7]. The GI50 in experiment [3] and in experiment [4] was less than 50 nM in each case.
For the molecule `COc1cc(S(=O)(=O)N2CCC(N3CCOCC3)CC2)ccc1Nc1nc(NCC2CCC2)c2c(C(F)(F)F)c[nH]c2n1` [Example 197, N^4-(cyclobutylmethyl)-N^2-(2-methoxy-4-((4-morpholinopiperidin-1-yl)sulfonyl)phenyl)-5-(trifluoromethyl)-7H-pyrrolo[2,3-d]pyrimidine-2,4-diamine], the IC50 in experiment [6] was 101 to 300 nM; in experiment [1], 301 to 1000 nM; in experiment [2], 301 to 1000 nM; in experiment [7] it was less than 100 nM. In addition, the 50% growth inhibitory concentration (GI50) in experiment [3] and in experiment [4] was 301 to 1000 nM throughout.
`COCC(C)(C)Nc1nc(Nc2ccc(S(=O)(=O)N3CCOCC3)cc2OC)nc2[nH]cc(C(F)(F)F)c12` [Example 175, N^4-(1-methoxy-2-methylpropan-2-yl)-N^2-(2-methoxy-4-(morpholinosulfonyl)phenyl)-5-(trifluoromethyl)-7H-pyrrolo[2,3-d]pyrimidine-2,4-diamine]: the IC50 in experiment [6], in experiment [1], in experiment [2] and in experiment [7] was 301 to 1000 nM throughout. Besides, the GI50 in experiment [3] was 101 to 300 nM; in experiment [4], 301 to 1000 nM.
For `CCCCNc1nc(Nc2ccc(S(=O)(=O)N3CCC(N4CCOCC4)CC3)cc2OC)nc2[nH]cc(C(F)(F)F)c12` [Example 202, N^4-butyl-N^2-(2-methoxy-4-((4-morpholinopiperidin-1-yl)sulfonyl)phenyl)-5-(trifluoromethyl)-7H-pyrrolo[2,3-d]pyrimidine-2,4-diamine], the IC50 is 101 to 300 nM in experiment [6], 301 to 1000 nM in experiment [1], 301 to 1000 nM in experiment [2] and less than 100 nM in experiment [7]. Also, the GI50 in experiment [3] and in experiment [4] was 301 to 1000 nM each time.
